{"source": "patent US20120270237A9", "about": "“METHODS FOR THE IDENTIFICATION OF KINASE INTERACTING MOLECULES AND FOR THE PURIFICATION OF KINASE PROTEINS” (Cellzone AG, priority 2009, published 2012)", "experiment_in_all_cases": "Kinobeads competition binding, HeLa Placenta lysate mix", "set-up_in_all_cases": "endogenous in cells", "details_in_all_cases": "10 μM free compound", "key": {"[1]": {"biological_target": "IRAK3 (Homo sapiens, UniProt Q9Y616)", "sequence (Q9Y616 whole entry)": "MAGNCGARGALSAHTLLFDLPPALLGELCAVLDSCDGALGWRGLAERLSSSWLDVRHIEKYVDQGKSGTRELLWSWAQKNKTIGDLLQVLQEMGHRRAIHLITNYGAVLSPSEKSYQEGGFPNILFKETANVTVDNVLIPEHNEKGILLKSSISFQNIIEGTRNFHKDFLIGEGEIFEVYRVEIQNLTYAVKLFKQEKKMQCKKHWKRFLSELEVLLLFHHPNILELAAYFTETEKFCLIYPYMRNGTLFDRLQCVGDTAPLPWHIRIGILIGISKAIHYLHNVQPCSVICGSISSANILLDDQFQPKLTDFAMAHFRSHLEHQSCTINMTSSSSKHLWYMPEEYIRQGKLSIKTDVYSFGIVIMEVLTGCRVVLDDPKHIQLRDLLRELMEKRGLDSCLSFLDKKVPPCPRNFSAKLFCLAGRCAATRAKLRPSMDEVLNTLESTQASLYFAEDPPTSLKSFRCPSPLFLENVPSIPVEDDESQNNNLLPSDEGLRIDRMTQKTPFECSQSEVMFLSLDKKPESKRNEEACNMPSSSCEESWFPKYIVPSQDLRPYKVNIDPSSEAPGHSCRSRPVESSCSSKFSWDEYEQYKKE", "procedure,_shortened": "(§1)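 Free compound (10 μM) was allowed to bind lysate proteins before affinity beads bearing immobilized compound were added. Bound material, together with that from a DMSO control, was digested and measured by iTRAQ LC-MS/MS.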"}, "[2]": {"biological_target": "T1, NEK9 (Homo sapiens, UniProt Q8TD19)", "T1 sequence (Q8TD19 1-979)": "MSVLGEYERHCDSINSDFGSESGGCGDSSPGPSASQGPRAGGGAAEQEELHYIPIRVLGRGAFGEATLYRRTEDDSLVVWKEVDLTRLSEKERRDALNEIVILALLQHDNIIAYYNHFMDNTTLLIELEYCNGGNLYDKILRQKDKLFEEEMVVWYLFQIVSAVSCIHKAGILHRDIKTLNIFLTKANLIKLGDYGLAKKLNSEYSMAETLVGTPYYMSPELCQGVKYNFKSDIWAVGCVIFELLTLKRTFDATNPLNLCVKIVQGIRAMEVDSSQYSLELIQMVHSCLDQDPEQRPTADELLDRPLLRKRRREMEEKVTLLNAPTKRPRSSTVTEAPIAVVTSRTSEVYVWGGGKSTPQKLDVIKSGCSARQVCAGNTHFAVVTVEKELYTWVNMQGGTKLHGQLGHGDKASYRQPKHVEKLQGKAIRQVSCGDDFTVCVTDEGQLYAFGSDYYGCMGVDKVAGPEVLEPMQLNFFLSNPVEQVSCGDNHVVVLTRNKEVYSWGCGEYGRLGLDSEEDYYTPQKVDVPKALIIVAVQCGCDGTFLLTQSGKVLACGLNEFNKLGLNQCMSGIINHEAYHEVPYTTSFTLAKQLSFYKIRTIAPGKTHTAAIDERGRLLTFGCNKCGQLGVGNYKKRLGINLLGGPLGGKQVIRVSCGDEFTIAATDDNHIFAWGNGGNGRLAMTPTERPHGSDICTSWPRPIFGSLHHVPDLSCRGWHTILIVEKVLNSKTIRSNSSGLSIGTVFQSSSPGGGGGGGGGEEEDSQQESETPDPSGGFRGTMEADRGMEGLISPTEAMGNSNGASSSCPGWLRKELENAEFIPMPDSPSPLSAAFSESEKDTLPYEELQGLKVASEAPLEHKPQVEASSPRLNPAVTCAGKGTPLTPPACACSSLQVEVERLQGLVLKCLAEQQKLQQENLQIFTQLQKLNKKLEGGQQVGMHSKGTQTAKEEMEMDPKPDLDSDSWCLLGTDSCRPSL", "procedure,_shortened": "as §1"}, "[3]": {"biological_target": "T2, IKKe (Homo sapiens, UniProt Q14164)", "T2 sequence (Q14164 1-716)": "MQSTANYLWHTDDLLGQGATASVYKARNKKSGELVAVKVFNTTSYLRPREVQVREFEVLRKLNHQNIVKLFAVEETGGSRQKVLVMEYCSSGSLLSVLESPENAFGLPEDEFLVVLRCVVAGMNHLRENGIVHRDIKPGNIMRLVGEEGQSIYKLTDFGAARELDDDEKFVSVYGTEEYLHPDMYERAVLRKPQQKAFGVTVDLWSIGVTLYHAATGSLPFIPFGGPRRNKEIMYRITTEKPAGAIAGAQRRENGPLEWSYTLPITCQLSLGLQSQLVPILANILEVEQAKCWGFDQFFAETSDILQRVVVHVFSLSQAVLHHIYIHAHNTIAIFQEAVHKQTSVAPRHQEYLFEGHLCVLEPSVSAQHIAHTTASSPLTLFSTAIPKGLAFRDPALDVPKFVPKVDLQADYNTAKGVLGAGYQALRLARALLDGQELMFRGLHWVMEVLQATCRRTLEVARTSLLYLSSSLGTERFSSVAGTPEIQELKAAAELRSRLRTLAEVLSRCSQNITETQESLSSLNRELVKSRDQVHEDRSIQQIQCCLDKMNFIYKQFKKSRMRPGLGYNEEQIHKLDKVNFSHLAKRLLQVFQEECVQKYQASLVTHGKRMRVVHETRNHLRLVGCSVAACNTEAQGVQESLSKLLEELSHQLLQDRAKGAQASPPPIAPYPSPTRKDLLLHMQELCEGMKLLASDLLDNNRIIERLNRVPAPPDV", "procedure,_shortened": "as §1"}, "[4]": {"biological_target": "T3, PIP5K2A (Homo sapiens, UniProt P48426)", "T3 sequence (P48426 1-406)": "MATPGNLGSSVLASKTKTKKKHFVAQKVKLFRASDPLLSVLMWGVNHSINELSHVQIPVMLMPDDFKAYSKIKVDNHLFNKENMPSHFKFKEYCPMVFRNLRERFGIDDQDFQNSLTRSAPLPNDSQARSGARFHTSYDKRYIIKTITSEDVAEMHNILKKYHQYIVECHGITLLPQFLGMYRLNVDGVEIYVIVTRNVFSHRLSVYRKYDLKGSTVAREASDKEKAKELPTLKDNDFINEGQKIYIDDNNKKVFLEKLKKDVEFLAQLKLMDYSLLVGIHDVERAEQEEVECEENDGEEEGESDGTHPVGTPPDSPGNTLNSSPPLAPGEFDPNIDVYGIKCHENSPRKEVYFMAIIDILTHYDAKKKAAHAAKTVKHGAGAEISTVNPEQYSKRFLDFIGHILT", "procedure,_shortened": "as §1"}, "[5]": {"biological_target": "RSK3 (Homo sapiens, UniProt Q15349)", "sequence (Q15349 whole entry)": "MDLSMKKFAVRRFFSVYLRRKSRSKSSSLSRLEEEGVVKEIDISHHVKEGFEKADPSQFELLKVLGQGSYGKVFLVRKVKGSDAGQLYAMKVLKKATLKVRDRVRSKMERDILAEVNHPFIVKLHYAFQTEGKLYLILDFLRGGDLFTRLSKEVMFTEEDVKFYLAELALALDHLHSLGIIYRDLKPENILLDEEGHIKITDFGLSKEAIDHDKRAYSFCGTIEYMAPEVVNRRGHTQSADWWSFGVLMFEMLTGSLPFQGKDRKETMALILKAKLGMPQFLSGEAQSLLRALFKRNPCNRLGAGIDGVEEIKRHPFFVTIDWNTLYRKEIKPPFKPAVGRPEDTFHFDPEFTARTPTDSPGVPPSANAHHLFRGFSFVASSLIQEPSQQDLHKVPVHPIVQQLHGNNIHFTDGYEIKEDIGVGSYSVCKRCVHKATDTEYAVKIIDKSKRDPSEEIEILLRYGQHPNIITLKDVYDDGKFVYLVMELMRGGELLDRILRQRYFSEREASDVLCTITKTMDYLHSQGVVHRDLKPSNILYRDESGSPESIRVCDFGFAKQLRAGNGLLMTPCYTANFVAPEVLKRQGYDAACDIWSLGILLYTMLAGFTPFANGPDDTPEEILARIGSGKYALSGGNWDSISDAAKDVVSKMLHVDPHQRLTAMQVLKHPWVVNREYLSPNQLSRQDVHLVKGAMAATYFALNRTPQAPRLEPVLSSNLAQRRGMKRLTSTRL", "procedure,_shortened": "as §1"}}}
{"smiles": "CS(=O)(=O)Nc1ccccc1Nc1nc(Nc2cccc(OCCN)c2)ncc1Cl", "note": "[CZC31326, N-(2-(2-(3-(2-aminoethoxy)phenylamino)-5-chloropyrimidin-4-ylamino)phenyl)methanesulfonamide]", "values": [{"measurement": "inhibition at 10 µM", "setting": "[1]", "value": 92, "unit": "%"}, {"measurement": "inhibition at 10 µM", "setting": "[2]", "value": 89, "unit": "%"}, {"measurement": "inhibition at 10 µM", "setting": "[3]", "value": 89.7, "unit": "%"}, {"measurement": "inhibition at 10 µM", "setting": "[4]", "value": 95, "unit": "%"}, {"measurement": "inhibition at 10 µM", "setting": "[5]", "value": 94.8, "unit": "%"}]}
